Results reported in patent publication US20050250752A1, “Cembranoids with chemopreventive activity” (priority 2002, published 2005).

Experiments:
[1] = system: Raji cells; test: Viability of treated Raji cells (Trypan Blue staining); assay type: cell-based
Method: (§1) The inhibition of EBV-EA activation was assayed using Raji cells (virus non-producer type). The indicator cells (Raji, 1×10^6/ml) were incubated at 37° C. for 48 h in 1 ml of medium containing n-butyric acid (4 mmol), TPA(12-O-tetradecanoylphorbol 13-acetate)(32 pmol=20 ng in 2 μl DMSO) as inducer and various amounts of test compounds in 5 μl DMSO. Smears were made from the cell suspension, and the activated cells, which were stained by EBV-EA positive serum from nasopharygeal carcinoma patients were detected by an indirect immunofluorescence technique. For each compound, assays were performed in triplicate. The average EBV-EA induction of the test compounds was expressed as a relative ratio to the control experiment (100%), which was carried out only with n-butyric acid plus TPA. The viability of treated Raji cells was assayed by the Trypan Blue staining method.

[2] = system: papillomas (mouse skin carcinogenesis induced by DMBA/TPA); test: Two-stage mouse skin carcinogenesis model induced by DMBA/TPA; assay type: in vivo, mouse (female ICR); settings: topical 85 nm 1 hour before TPA, ICR mice
Method: In the two-stage mouse skin carcinogenesis model induced by DMBA/TPA, the animals (specific pathogen-free female ICR, 6 weeks old) were divided into 5 groups, 15 mice each. The back of each mouse was shaved with surgical clippers, and the mice were topically treated with DMBA (100 μg, 390 nmol) in acetone (0.1 ml) as an initiation treatment. For the positive control group, 1 week after initiation with DMBA, mice were promoted by the application with TPA (1 μg, 1.7 nmol) in acetone (0.1 ml) twice a week. The other four groups received a topical application of each of the sarcophine semi-synthetic derivatives (85 nm) 1 hour before application of the tumor promoter. The incidence of papillomas was observed weekly for 20 weeks. The percentage of mice bearing papillomas and the average number of papillomas per mouse were recorded.

[3] = system: Epstein-Barr virus early antigen (EBV-EA) of Raji cells induced by tumor promoter (TPA); test: Inhibition of EBV-EA activation induced by TPA in Raji cells; assay type: cell-based; settings: TPA 32 pmol, Raji cells, 48 h
Method: as §1

[4] = x 1000 mol ratio/TPA (32 nmol/mL)

SMILES: CC1=CC=C([C@@](C)(O)CO)C[C@H](O)C(C)=CCCC2(C)OC2CC1 (stereo partly drawn) [Compound 12, 7,8-Epoxy-1,3,11-cembratriene-13S(β),15R(α),16-triol]
- viability percentage of Raji cells (indicator cells) ([1]; x 10 mol ratio/TPA): > 80%
- viability percentage of Raji cells (indicator cells) ([1]; x 100 mol ratio/TPA): > 80%
- viability percentage of Raji cells (indicator cells) ([1]; x 500 mol ratio/TPA): > 80%
- viability percentage of Raji cells (indicator cells) [1, 4]: 60%
- Papilloma Bearer (%) ([2]; week 1 of promotion): 0.0%
- Papillomas/mouse ([2]; week 1 of promotion): 0.0
- Papilloma Bearer (%) ([2]; week 2 of promotion): 0.0%
- Papillomas/mouse ([2]; week 2 of promotion): 0.0
- Papilloma Bearer (%) ([2]; week 3 of promotion): 0.0%
- Papillomas/mouse ([2]; week 3 of promotion): 0.0
- Papilloma Bearer (%) ([2]; week 4 of promotion): 0.0%
- Papillomas/mouse ([2]; week 4 of promotion): 0.0
- Papilloma Bearer (%) ([2]; week 5 of promotion): 0.0%
- Papillomas/mouse ([2]; week 5 of promotion): 0.0
- Papilloma Bearer (%) ([2]; week 6 of promotion): 0.0%
- Papillomas/mouse ([2]; week 6 of promotion): 0.0
- Papilloma Bearer (%) ([2]; week 7 of promotion): 0.0%
- Papillomas/mouse ([2]; week 7 of promotion): 0.0
- Papilloma Bearer (%) ([2]; week 8 of promotion): 13.3%
- Papillomas/mouse ([2]; week 8 of promotion): 0.2
- Papilloma Bearer (%) ([2]; week 9 of promotion): 20.0%
- Papillomas/mouse ([2]; week 9 of promotion): 0.5
- Papilloma Bearer (%) ([2]; week 10 of promotion): 26.6%
- Papillomas/mouse ([2]; week 10 of promotion): 1.1
- Papilloma Bearer (%) ([2]; week 11 of promotion): 33.3%
- Papillomas/mouse ([2]; week 11 of promotion): 1.5
- Papilloma Bearer (%) ([2]; week 12 of promotion): 33.3%
- Papillomas/mouse ([2]; week 12 of promotion): 2.0
- Papilloma Bearer (%) ([2]; week 13 of promotion): 40.0%
- Papillomas/mouse ([2]; week 13 of promotion): 2.2
- Papilloma Bearer (%) ([2]; week 14 of promotion): 46.6%
- Papillomas/mouse ([2]; week 14 of promotion): 2.7
- Papilloma Bearer (%) ([2]; week 15 of promotion): 53.3%
- Papillomas/mouse ([2]; week 15 of promotion): 3.1
- Papilloma Bearer (%) ([2]; week 16 of promotion): 60.0%
- Papillomas/mouse ([2]; week 16 of promotion): 3.7
- Papilloma Bearer (%) ([2]; week 17 of promotion): 66.6%
- Papillomas/mouse ([2]; week 17 of promotion): 4.0
- Papilloma Bearer (%) ([2]; week 18 of promotion): 73.3%
- Papillomas/mouse ([2]; week 18 of promotion): 4.1
- Papilloma Bearer (%) ([2]; week 19 of promotion): 73.3%
- Papillomas/mouse ([2]; week 19 of promotion): 4.4
- Papilloma Bearer (%) ([2]; week 20 of promotion): 80.0%
- Papillomas/mouse ([2]; week 20 of promotion): 4.6
- EBV-EA induction, percentage relative to the positive control value (100%) ([3]; x 10 mol ratio/TPA): 93.8%
- EBV-EA induction, percentage relative to the positive control value (100%) ([3]; x 100 mol ratio/TPA): 74.6%
- EBV-EA induction, percentage relative to the positive control value (100%) ([3]; x 500 mol ratio/TPA): 55.8%
- EBV-EA induction, percentage relative to the positive control value (100%) [3, 4]: 5.9%
